From ChEMBL document CHEMBL4828706, “Mechanistic Insights into the Leishmanicidal and Bactericidal Activities of Batroxicidin, a Cathelicidin-Related Peptide from a South American Viper (Bothrops atrox)” (J Nat Prod, 2021)
Converted amounts (≈) assume the structure as drawn. The source made the active and inactive calls. No cut-off for these calls is given here. Where a SMILES comes first, the peptide text is derived from it.

How the values were obtained:
[1] = test system: Lipid bilayer; assay: Binding affinity with Biomimetic membrane dodecylphosphocholine micelles by NMR analysis
[2] = Cytotoxicity against mouse macrophage J774 cells assessed as cell growth inhibition measured after 24 hrs by Prestoblue dye based fluorescence analysis
[3] = test system: Staphylococcus aureus; assay: Antibacterial activity against Staphylococcus aureus ATCC 29213 assessed as inhibition of bacterial growth by CLSI protocol based microdilution assay; type: functional
[4] = test system: Pseudomonas aeruginosa; assay: Antibacterial activity against multidrug-resistant Pseudomonas aeruginosa assessed as inhibition of bacterial growth by CLSI protocol based microdilution assay; type: functional
[5] = test system: Escherichia coli; assay: Antibacterial activity against Escherichia coli ATCC 25922 assessed as inhibition of bacterial growth by CLSI protocol based microdilution assay; type: functional
[6] = test system: Leishmania amazonensis; assay: Antileishmanial activity in Leishmania amazonensis amastigotes infected in Balb/c mouse peritoneal macrophages assessed as reduction in infection index measured after 24 hrs by Giemsa staining based assay; type: functional, organism-based; details: Peritoneal macrophage
[7] = test system: Leishmania amazonensis; assay: Antileishmanial activity in Leishmania amazonensis amastigotes infected in Balb/c mouse peritoneal macrophages assessed as average parasitic charge per macrophage at 0.70 uM measured after 24 hrs by Giemsa staining based assay; type: functional; details: dose 0.7 µM
[8] = test system: Escherichia coli; assay: Antibacterial activity against Escherichia coli ATCC 1812446 assessed as inhibition of bacterial growth incubated for 18 hrs by CLSI protocol based microdilution assay; type: functional
[9] = test system: Cell membrane; assay: Induction of cell membrane permeabilization in Escherichia coli ATCC 25922 assessed as cell morphology distortion by measuring alterations in cell shape at 0.47 uM by Atomic force microscopy analysis; type: subcellular
[10] = test system: Escherichia coli; assay: Antibacterial activity against Escherichia coli ATCC 2101123 assessed as inhibition of bacterial growth incubated for 18 hrs by CLSI protocol based microdilution assay; type: functional
[11] = test system: Leishmania amazonensis; assay: Antileishmanial activity against Leishmania amazonensis (MHOM/BR/73/M2269) promastigotes assessed as inhibition of parasite growth measured after 24 hrs by MTT assay; type: functional, organism-based; details: MHOM/BR/73/M2269, 24 h
[12] = test system: Staphylococcus aureus; assay: Antibacterial activity against methicillin-resistant Staphylococcus aureus assessed as inhibition of bacterial growth by CLSI protocol based microdilution assay; type: functional
[13] = test system: Lipid bilayer; assay: Binding affinity with Biomimetic membrane dodecylphosphocholine micelles by circular dichroism analysis
[14] = Cytotoxicity against human HaCat cells assessed as cell growth inhibition measured after 48 hrs by MTT assay; type: cell-based
[15] = test system: Enterococcus faecalis; assay: Antibacterial activity against Enterococcus faecalis ATCC 29212 assessed as inhibition of bacterial growth by CLSI protocol based microdilution assay; type: functional
[16] = test system: Lipid bilayer; assay: Induction of membrane destabilization in mammalian cell membrane mimic POPC:Chol (70:30) large unilamellar vesicle assessed as carboxyfluorescein leakage at MIC for Escherichia coli measured for 60 mins by fluorescence spectroscopy analysis
[17] = test system: Escherichia coli; assay: Antibacterial activity against multidrug- resistant Escherichia coli assessed as inhibition of bacterial growth by CLSI protocol based microdilution assay; type: functional
[18] = test system: Lipid bilayer; assay: Induction of membrane destabilization in bacterial cell membrane mimic POPC:POPG (80:20) large unilamellar vesicle assessed as carboxyfluorescein leakage at MIC for Escherichia coli measured for 60 mins by fluorescence spectroscopy analysis
[19] = test system: Cell membrane; assay: Induction of cell membrane permeabilization in Escherichia coli ATCC 25922 assessed as cell morphology distortion by measuring circular depressions along the bacterial surface at 0.47 uM by Atomic force microscopy analysis; type: subcellular
[20] = test system: Pseudomonas aeruginosa; assay: Antibacterial activity against Pseudomonas aeruginosa ATCC 27853 assessed as inhibition of bacterial growth by CLSI protocol based microdilution assay; type: functional
[21] = test system: Escherichia coli; assay: Antibacterial activity against Escherichia coli ATCC 25922 assessed as inhibition of bacterial growth incubated for 18 hrs by CLSI protocol based microdilution assay; type: functional
[22] = test system: Pseudomonas aeruginosa; assay: Antibacterial activity against Pseudomonas aeruginosa ATCC 27853 assessed as inhibition of bacterial growth incubated for 18 hrs by CLSI protocol based microdilution assay; type: functional
[23] = test system: Cell membrane; assay: Induction of cell membrane permeabilization in Escherichia coli ATCC 25922 assessed as cell morphology distortion by measuring modifications on bacillary structure at 0.23 uM by Atomic force microscopy analysis; type: subcellular
[24] = test system: Cell membrane; assay: Disruption of membrane integrity in Leishmania amazonensis promastigotes at EC50 to 2 x EC50 measured after 24 hrs by SYTOX green staining based fluorescence assay; type: subcellular
[25] = test system: Cell membrane; assay: Disruption of membrane integrity in Leishmania amazonensis promastigotes assessed as cell morphology deformation at 59.81 uM by Atomic force microscopy analysis; type: subcellular
[26] = test system: Cell membrane; assay: Disruption of membrane integrity in Leishmania amazonensis promastigotes assessed as cell morphology deformation by measuring wrinkled patterns at 59.81 uM by Atomic force microscopy analysis; type: subcellular
[27] = test system: Leishmania amazonensis; assay: Antileishmanial activity in Leishmania amazonensis amastigotes infected in Balb/c mouse peritoneal macrophages assessed as average parasitic charge per macrophage at 1 uM measured after 24 hrs by Giemsa staining based assay; type: functional
[28] = test system: Cell membrane; assay: Disruption of membrane integrity in Leishmania amazonensis promastigotes assessed as cell morphology deformation at 61.98 uM by Atomic force microscopy analysis; type: subcellular
[29] = test system: Cell membrane; assay: Induction of cell membrane permeabilization in Escherichia coli ATCC 25922 assessed as cell morphology distortion by measuring modifications on bacillary structure at 0.12 uM by Atomic force microscopy analysis; type: subcellular
[30] = test system: Cell membrane; assay: Disruption of membrane integrity in Leishmania amazonensis promastigotes assessed as cell morphology deformation by measuring wrinkled patterns at 61.98 uM by Atomic force microscopy analysis; type: subcellular

Row | SMILES | Activity [1] | CC50 at 24 h [2] [µM] | MIC [3] [µM] | MIC [4] [µM] | MIC [5] [µM] | Activity [6] | MIC [8] [µM] | MIC [10] [µM] | EC50 [11] [µM] | MIC [12] [µM] | Activity [13] | CC50 at 48 h [14] [µM] | MIC [15] [µM] | Activity [16] [%] | MIC [17] [µM] | Activity [18] [%] | MIC [20] [µM] | also measured
1 | CC[C@H](C)[C@H](NC(=O)[C@@H](NC(=O)[C@H](CCCNC(=N)N)NC(=O)[C@@H]1CCCN1C(=O)[C@H](CCCCN)NC(=O)[C@H](CCCNC(=N)N)NC(=O)[C@H](Cc1ccccc1)NC(=O)[C@H](Cc1ccccc1)NC(=O)[C@H](CCCCN)NC(=O)[C@H](CCCCN)NC(=O)[C@@H](NC(=O)[C@H](CCCNC(=N)N)NC(=O)[C@H](CCCCN)NC(=O)[C@H](CCCCN)NC(=O)[C@@H](NC(=O)[C@H](CO)NC(=O)[C@H](CC(N)=O)NC(=O)[C@H](CCCCN)NC(=O)[C@H](CC(C)C)NC(=O)[C@H](CCCCN)NC(=O)[C@H](CCCCN)NC(=O)[C@H](Cc1ccccc1)NC(=O)[C@H](Cc1ccccc1)NC(=O)[C@H](CCCCN)NC(=O)[C@H](CCCCN)NC(=O)[C@H](Cc1ccccc1)NC(=O)[C@H](CCCNC(=N)N)NC(=O)[C@@H](N)CCCCN)C(C)C)C(C)C)C(C)C)C(=O)NCC(=O)N[C@H](C(=O)N[C@H](C(=O)N[C@@H](Cc1ccccc1)C(=O)N1CCC[C@H]1C(=O)N[C@@H](Cc1ccccc1)C(N)=O)[C@@H](C)O)C(C)C (H-KRFKKFFKKLKNSVKKRVKKFFRKPRVIGVTFPF-NH2) | Active | 1.6 | 7.51 (≈ 32 µg/mL) | 0.94 (≈ 4 µg/mL) | 0.48 (≈ 2.04 µg/mL) | Dose-Dependent Effect | 8 (≈ 34.1 µg/mL) | 8 (≈ 34.1 µg/mL) | 4.9 | 7.51 (≈ 32 µg/mL) | Active | 21.7 | 7.51 (≈ 32 µg/mL) | 35 | 0.94 (≈ 4 µg/mL) | 50 | 0.94 (≈ 4 µg/mL) | Activity [7]: 1.96; Activity [9]: inactive; Activity [19]: Active
2 | C[C@H]1C(=O)O[C@@H]2CCN3CC=C(COC(=O)[C@](C)(O)[C@]1(C)O)[C@H]23 [MONOCROTALINE] |  |  |  |  |  |  | 16 (≈ 5.21 µg/mL) | 4 (≈ 1.3 µg/mL) |  |  |  |  |  |  |  |  |  | MIC [21]: 0.78 µM (≈ 0.254 µg/mL); MIC [22]: 1.56 µM (≈ 0.508 µg/mL)
3 | CC[C@H](C)[C@H](NC(=O)[C@@H](NC(=O)[C@H](CCCNC(=N)N)NC(=O)[C@@H]1CCCN1C(=O)[C@H](CCCCN)NC(=O)[C@H](CCCNC(=N)N)NC(=O)[C@H](Cc1ccccc1)NC(=O)[C@H](Cc1ccccc1)NC(=O)[C@H](Cc1ccccc1)NC(=O)[C@H](CCCCN)NC(=O)[C@@H](NC(=O)[C@H](CCCNC(=N)N)NC(=O)[C@H](CCCCN)NC(=O)[C@H](CCCCN)NC(=O)[C@@H](NC(=O)[C@H](CO)NC(=O)[C@H](CC(N)=O)NC(=O)[C@H](CCCCN)NC(=O)[C@H](CC(C)C)NC(=O)[C@H](CCCCN)NC(=O)[C@H](CCCCN)NC(=O)[C@H](Cc1ccccc1)NC(=O)[C@H](Cc1ccccc1)NC(=O)[C@H](CCCCN)NC(=O)[C@H](CCCCN)NC(=O)[C@H](Cc1ccccc1)NC(=O)[C@H](CCCNC(=N)N)NC(=O)[C@@H](N)CCCCN)C(C)C)C(C)C)C(C)C)C(=O)NCC(=O)N[C@H](C(=O)N[C@H](C(=O)N[C@@H](Cc1ccccc1)C(=O)N1CCC[C@H]1C(=O)N[C@@H](Cc1ccccc1)C(N)=O)[C@@H](C)O)C(C)C (H-KRFKKFFKKLKNSVKKRVKFFFRKPRVIGVTFPF-NH2) | Active | 2.14 | 3.74 (≈ 16 µg/mL) | 4 (≈ 17.1 µg/mL) | 0.93 (≈ 3.98 µg/mL) | Dose-Dependent Effect |  |  | 6.74 | 1.87 (≈ 8 µg/mL) | Active | 29.4 | 7.48 (≈ 32 µg/mL) | 60 | 0.94 (≈ 4.02 µg/mL) | 60 | 1.87 (≈ 8 µg/mL) | Activity [23]: Active; Activity [24]: Active; Activity [25]: Active; Activity [26]: Active
4 | C[C@@H]1[C@H](O)[C@@H](C)/C=C/C=C/C=C/C=C/C=C/C=C/C=C/[C@H](O[C@@H]2O[C@H](C)[C@@H](O)[C@H](N)[C@@H]2O)C[C@@H]2O[C@](O)(C[C@@H](O)C[C@@H](O)[C@H](O)CC[C@@H](O)C[C@@H](O)CC(=O)O[C@H]1C)C[C@H](O)[C@H]2C(=O)O [AMPHOTERICIN B] |  |  |  |  |  |  |  |  | 0.024 |  |  |  |  |  |  |  |  | Ratio [27]: 5.07
5 | CC[C@H](C)[C@H](NC(=O)[C@@H](NC(=O)[C@H](CCCNC(=N)N)NC(=O)[C@@H]1CCCN1C(=O)[C@H](CCCCN)NC(=O)[C@H](CCCNC(=N)N)NC(=O)[C@H](Cc1ccccc1)NC(=O)[C@H](Cc1ccccc1)NC(=O)[C@H](Cc1ccccc1)NC(=O)[C@H](CCCCN)NC(=O)[C@@H](NC(=O)[C@H](CCCNC(=N)N)NC(=O)[C@H](CCCCN)NC(=O)[C@H](CCCCN)NC(=O)[C@@H](NC(=O)[C@H](CO)NC(=O)[C@H](CC(N)=O)NC(=O)[C@H](CCCCN)NC(=O)[C@H](CC(C)C)NC(=O)[C@H](CCCCN)NC(=O)[C@H](CCCCN)NC(=O)[C@H](Cc1ccccc1)NC(=O)[C@H](Cc1ccccc1)NC(=O)[C@H](CCCCN)NC(=O)[C@H](CCCCN)NC(=O)[C@H](Cc1ccccc1)NC(=O)[C@H](CCCNC(=N)N)NC(=O)[C@@H](N)CCCCN)C(C)C)C(C)C)C(C)C)C(=O)NCC(=O)N[C@H](C(=O)N[C@H](C(=O)N[C@@H](Cc1ccccc1)C(=O)N1CCC[C@H]1C(N)=O)[C@@H](C)O)C(C)C (H-KRFKKFFKKLKNSVKKRVKFFFRKPRVIGVTFP-NH2) | Active | 3.51 | 3.87 (≈ 16 µg/mL) | 0.94 (≈ 3.88 µg/mL) | 0.48 (≈ 1.98 µg/mL) | Dose-Dependent Effect |  |  | 8.86 | 1.94 (≈ 8.01 µg/mL) | Active | 34.1 | 7.75 (≈ 32 µg/mL) | 30 | 0.48 (≈ 1.98 µg/mL) | 35 | 0.97 (≈ 4.01 µg/mL) | Activity [28]: Active; Activity [29]: Active; Activity [30]: Active
